Measurements reported in patent publication US20120157402A1, “METHODS FOR TREATING BRAIN TUMORS” (priority 2009, published 2012).
Where two headings read alike, the source gives them in different places. Marks after values point to notes of the source that are not given here.

What was measured:
HT1080 xenografts [1] = experiment: BrdU labeling of tumor cells from HT1080 xenografts in nude mice; type: in vivo, athymic nude mice; conditions: Days 1-3; Compound #10 10 mg/kg oral QD, doxorubicin, bevacizumab
Experimental: (§1) Experimental Design. HT1080 cells (5×10^6 cells/mouse) were implanted subcutaneously in male athymic nude mice.
The mice were sacrificed 3 hours later, and the tumors collected. A single cell suspension was prepared from the tumor cells. The cells were permeabilized and an antibody to BrdU was used to stain cells that had entered S phase during the labeling period. The proportion of cells actively synthesizing DNA was determined by cell sorting.

[2] = test system: human VEGF121 and VEGF165; experiment: Intratumoral and plasma human VEGF (ELISA) in nude mice bearing HT1080 xenografts; type: in vivo, athymic nude mice; conditions: Day 1; Compound #10 10 mg/kg oral QD, doxorubicin 6 mg/kg IP, bevacizumab 5 mg/kg IP single bolus
Experimental: (§2) In all of these experiments, HT1080 cells (5×10^6 cells/mouse) were implanted subcutaneously in male athymic nude mice. When tumors had become established, mice were divided into groups (10 mice/group). […] Tumor size was measured by calipers at the beginning and end of treatment. At the completion of Compound administration, the mice were sacrificed, and excised tumors were assayed by ELISA for intratumoral VEGF or other angiogenic factors using methods analogous to those described in Section 9.1.1.1.
Tumor size was measured using calipers at periodic intervals during the study (data shown in Section 9.2.2). […] The study was ended after 18 days, when the vehicle treated tumors reached a mean volume of ˜1755 mm^3. […] Mice were sacrificed, and excised tumors were homogenized in buffer containing protease inhibitors. Both terminal intratumoral and pathologic plasma human VEGF levels were measured using an ELISA that recognizes human VEGF121 and VEGF165 (as described in Section 9.1.1.1). […]
Experimental Design. […] Both intra-tumor and pathologic plasma human VEGF levels were measured using an ELISA that recognizes human VEGF121 and VEGF165. […]
Tumor size was measured by calipers immediately pre-treatment and at the time of sacrifice on Day 1, 2, or 3 (5 mice per group per day). […]

[3] = Trough plasma concentrations of Compound #10 in HT1080 xenograft mice (HPLC-MS/MS); type: in vivo; conditions: athymic nude, mouse, oral, 1 mg/kg BID
in vivo [4] = conditions: both, beagle, dog
Experimental: (§4) The L23 vehicle was used. […] All studies in the toxicology program were conducted according to GLP regulations.

[5] = Oral pharmacokinetics in mice; type: in vivo; conditions: mouse, plasma, 1-mg/kg dose level, Day 1, read-out: Plasma trough concentration at 24 hours (minimal mean target plasma concentration)
Experimental: The pharmacokinetic evaluations in mice were adjuncts to the primary pharmacodynamic xenograft studies. The evaluations in rats included toxicokinetic assessments in single-dose, 7-day, and 28-day toxicology studies as well as a mass-balance study after a single oral dose of ^14C-Compound #10. The evaluations in dogs included toxicokinetic assessments in 7-day and 28-day toxicology studies. In the studies performed, rodents were dosed once daily with Compound #10 formulated in vehicle and administered via oral gavage.

[6] = Phase 1 multiple-dose study in healthy volunteers: pharmacokinetics (Table 28); type: in vivo; conditions: human, plasma, oral; for concentration at 24 h: 24 hours after first daily dose, read-out: C24 h; for AUC(0-t): read-out: AUC0-24; for Cmax: read-out: Cmax (after PM dose)
Experimental: The study was performed under the oversight of the French health authorities. The study was not performed under an IND.
Methods. The trial was a Phase 1, randomized, escalating multiple dose, single center study conducted in 2 stages.
Capsules contained 2 mg or 20 mg of active substance.
Capsules contained 20 mg or 25 mg of active substance.
Noncompartmental methods were used to compute Tmax, Cmax, and AUC. Dose proportionality and sex effect were evaluated using ANOVA on log transformed PK parameters using dose, sex, and dose by sex as fixed factors.

in vivo [7] = conditions: beagle, dog
Experimental: as §4

in vivo [8] = conditions: Sprague Dawley, rat
Experimental: as §4

[9] = Single-dose oral toxicity study in rats; conditions: Sprague Dawley, rat, in vivo, single oral gavage, read-out: NOAEL for 1 day of dosing
Experimental: (§3) The L23 vehicle was used.
Because maximal exposure occurred at 100 mg/kg, this dose is considered the NOAEL for 1 day of dosing.

[10] = 7-day oral toxicity study in rats; conditions: Sprague Dawley, rat, in vivo
Experimental: as §3
Maximal exposures occurred at a dose of 120 mg/kg/day.

D245MG-PR cells = experiment: D245MG-PR (procarbazine-resistant) lethality model of GBM, monotherapy and with temozolomide; type: in vivo, Balb/C nu/nu mice; conditions: Cpd #10 10 mg/kg oral QD from Day 3; TMZ 250 mg/kg IP from Day 5 (control 70 days)
Experimental: Forty (40) female Balb/C nu/nu mice at least 6 weeks of age but not more than 12 weeks at study initiation, weighing at study initiation 18-28 g, were implanted intracranially. D245MG-PR cells (procarbazine-resistant cells derived from an adult human GBM tumor) in a medium using a 25-gauge needle. Mice were anesthetized with Ketamine/Rompun cocktail prior to IC implantation. The day of tumor cell implantation was designated as Day 0. Animals were randomly assigned to treatment groups (10 mice per treatment group).
Mice in Group 1 were administered L21 vehicle alone orally once per day beginning on Day 3. […] Mice in Group 3 were administered 250 mg/kg TMZ intraperitoneally (IP) beginning on Day 5.
Body weights were measured the day that dosing was initiated and once a week thereafter. Observations were made on animals that died or were sacrificed at an unscheduled interval. Animals were sacrificed if moribund.

[11] = test system: soluble VEGF121 and VEGF165; experiment: Inhibition of soluble VEGF production in human tumor cell lines, ELISA EC50 (Table 4); type: cell-based; conditions: tumor cells, data not shown
Experimental: Study Design. […] In these experiments, cultures were established under normoxic conditions (21% oxygen). […] Cells requiring induction of VEGF production were incubated under hypoxic conditions (1% oxygen). At the completion of treatment, the conditioned media were collected and assayed by ELISA (as described in Section 9.1.1.1) for soluble VEGF121 and VEGF165 isoforms; results were calculated as percentage inhibition relative to vehicle treated controls. EC50 values were calculated from the dose concentration response curves.

HT1080 cells = experiment: Cell cycle analysis in HT1080 cells, propidium iodide flow cytometry (Table 24; reversibility); type: cell-based, human; conditions: tumor cells, data not shown
Experimental: Experimental Design. […] After treatment, cells were trypsinized, and stained with propidium iodide (PI) dye to measure DNA content of individual cells by flow cytometry. Output comprised histograms showing relative DNA content in 10,000 cells.
While compounds which cause greater than 20% of the cells to accumulate in S-phase at 100 nM are considered active, a larger percentage of cells may be accumulated in S-phase at lower doses depending on the Compound, as shown in FIG. 12 for example.

HT1080 xenografts [12] = experiment: Tumor growth in nude mice bearing HT1080 xenografts; type: in vivo, athymic nude mice
Experimental: as §2
Experimental Study Design. HT1080 cells (5×10^6 cells/mouse) were implanted subcutaneously in male athymic nude mice.
Tumor size was measured using calipers at periodic intervals during the study (data shown in Section 9.2.2). […] The study was ended after 18 days, when the vehicle treated tumors reached a mean volume of ˜1755 mm^3. […] Mice were sacrificed, and excised tumors were homogenized in buffer containing protease inhibitors. Both terminal intratumoral and pathologic plasma human VEGF levels were measured using an ELISA that recognizes human VEGF121 and VEGF165 (as described in Section 9.1.1.1). Intratumoral VEGF levels were normalized to the total tumor protein concentration, while pathologic plasma human VEGF levels were expressed in pg/mL of plasma.
Experimental Design. HT1080 cells (5×10^6 cells/mice) were implanted subcutaneously into male athymic nude mice. Treatment with vehicle alone or Compound 1205 was initiated when the median tumor volume was approximately 311±88 mm^3. Table 7 and Table 9 (study design #21 and #23) provide the study design for assessing tumor and plasma pathologic VEGF concentrations—each group in each study included eight (8) mice. When the tumors in vehicle-treated mice had reached the target size of ˜1200 mm^3 for study #21 and ˜1500 mm^3 for study #23, all mice in the study were sacrificed, and excised tumors were homogenized in buffer containing protease inhibitors. Both intra-tumor and pathologic plasma human VEGF levels were measured using an ELISA that recognizes human VEGF121 and VEGF165. Intra-tumor VEGF levels were normalized to the total tumor protein concentration and pathologic plasma VEGF levels were expressed in pg/mL. Because smaller tumors produce less VEGF per mg of tumor protein, intra-tumor VEGF levels were normalized to tumor size.
Experimental Design. HT1080 cells (5×10^6 cells/mouse) were implanted subcutaneously in male athymic nude mice. […] For comparison, Compound #10 was included in this study.
as §1
Tumor size was measured by calipers immediately pre-treatment and at the time of sacrifice on Day 1, 2, or 3 (5 mice per group per day). At sacrifice, the plasma was collected for assay of pathologic human VEGF concentration using an ELISA that recognizes human VEGF121 and VEGF165 (as described in Section 9.1.1.1).

[13] = both sexes, 0.3 mg/kg, Stage 1, 0.3 mg/kg BID, Day 1, mean
[14] = both sexes, 0.3 mg/kg, Stage 1, 0.3 mg/kg BID, Day 7, mean
[15] = both sexes, 0.6 mg/kg, Stage 1, 0.6 mg/kg BID, Day 1, mean

**Q.** What does the source list for `COc1cccc2c1C(=O)c1c(O)c3c(c(O)c1C2=O)C[C@@](O)(C(=O)CO)C[C@@H]3O[C@H]1C[C@H](N)[C@H](O)[C@H](C)O1` [doxorubicin]?
**A.** BrdU staining of tumor cells (fraction in S phase) (HT1080 xenografts [1]): decreased the percentage of tumor cells staining with BrdU; Pathologic plasma human VEGF levels vs control [2]: numerically lower than in control animals by Day 1

**Q.** What does the source list for `COc1ccc([C@H]2c3[nH]c4ccc(Cl)cc4c3CCN2C(=O)Oc2ccc(Cl)cc2)cc1` (racemic) [Compound #10]?
**A.** concentration at 16 h ([3]; 16 hours after the first day of dosing (n=3), read-out: Mean trough plasma concentration): 130 ng/mL; concentration at 16 h ([3]; 16 hours after the first day of dosing (n=3), read-out: Mean trough plasma concentration (value in brackets)): 280 ng/mL; concentration at 16 h ([3]; 16 hours after the last dose on Day 18 (n=4), read-out: Steady state mean trough plasma concentration): 820 ng/mL; NOAEL at 28 days (in vivo [4]): 30 mg/kg/day; concentration at 24 h [5]: 100 to 150 ng/mL; concentration at 24 h ([6]; both sexes, 0.3 mg/kg BID, Stage 1, 0.3 mg/kg BID, Day 1, mean): 94 ng/mL; concentration at 24 h ([6]; both sexes, 0.3 mg/kg BID, Stage 1, 0.3 mg/kg BID, Day 7, mean): 210 ng/mL; AUC(0-t) [6, 13]: 4310 ng·h/mL; Cmax [6, 13]: 480 ng/mL; Tmax ([6]; both sexes, 0.3 mg/kg, Stage 1, 0.3 mg/kg BID, Day 1, mean, read-out: Tmax (after PM dose)): 3.16 h; AUC(0-t) [6, 14]: 8440 ng·h/mL; Cmax [6, 14]: 590 ng/mL; concentration at 24 h ([6]; both sexes, 0.6 mg/kg BID, Stage 1, 0.6 mg/kg BID, Day 1, mean): 260 ng/mL; concentration at 24 h ([6]; both sexes, 0.6 mg/kg BID, Stage 1, 0.6 mg/kg BID, Day 7, mean): 540 ng/mL; AUC(0-t) [6, 15]: 10100 ng·h/mL; Cmax [6, 15]: 970 ng/mL; Tmax ([6]; both sexes, 0.6 mg/kg, Stage 1, 0.6 mg/kg BID, Day 1, mean, read-out: Tmax (after PM dose)): 3.17 h; Cmax ([6]; both sexes, 0.6 mg/kg, Stage 1, 0.6 mg/kg BID, Day 7, mean): 1160 ng/mL; Tmax ([6]; both sexes, Stage 1 and Stage 2, read-out: Mean Tmax): ~3 h; AUC(0-t) ([6]; both sexes, Stage 1, 0.6 mg/kg BID, Day 7, mean): 18600 ng·h/mL; Tmax ([6]; both, […], Stage 2, […] TID, Day 1, mean, read-out: Tmax (after PM dose)): 2.5 h; Tmax ([6]; both, Stage 1, 1.2 mg/kg BID, Day 1, mean, read-out: Tmax (after PM dose)): 3 h; NOAEL at 7 days (in vivo [7]): 60 mg/kg/day; NOAEL at 28 days (in vivo [8]): 12 mg/kg/day; NOAEL at 1 day [9]: 100 mg/kg; NOAEL at 7 days ([10]; female rats): 120 mg/kg/day; NOAEL at 7 days ([10]; male rats): 40 mg/kg/day

**Q.** For `Cn1nnc2c(C(N)=O)ncn2c1=O` [TEMODAR, temozolomide], which Median survival time (D245MG-PR cells) is on record?
**A.** Its Median survival time is 86 days.

**Q.** With `NC(Cn1ccc(=O)c(O)c1)C(=O)O` (centres unmarked) [mimosine] as the compound, how does the VEGF production [11] read?
**A.** Its VEGF production is “does not delay or prolong the cell cycle or reduce VEGF production”.

**Q.** What about the “Cell cycle delay or prolongation” value (HT1080 cells) of the same compound?
**A.** Its value is “does not delay or prolong the cell cycle or reduce VEGF production”.

**Q.** For `O=C(Oc1ccc(Cl)cc1)N1CCc2c([nH]c3ccc(Cl)cc23)[C@@H]1c1ccc(OCC[C@H](O)CO)cc1` [Compound 1205], which “Mean difference in tumor growth rate at the Day that the vehicle-treated tumors taken off study (%)” value (“Mean difference in tumor growth rate … (%)” for short) (HT1080 xenografts [12]; Study 21, 3 mg/kg QD, Day 14) is on record?
**A.** Its value is 80%**.

**Q.** What about the “Mean difference in tumor growth rate … (%)” value (HT1080 xenografts [12]; Study 22, 0.5 mg/kg QD, Day 11) of the same compound?
**A.** Its value is 62%**.

**Q.** What about the “Mean difference in tumor growth rate … (%)” value (HT1080 xenografts [12]; Study 22, 3 mg/kg QD, Day 11) of the same compound?
**A.** Its value is 75%**.

**Q.** And the “Mean difference in tumor growth rate … (%)” value (HT1080 xenografts [12]; Study 23, 1 mg/kg QD, Day 14)?
**A.** The value was 59%**.

**Q.** What about the “Mean difference in tumor growth rate … (%)” value (HT1080 xenografts [12]; Study 24a, 10 mg/kg QD, Day 11) of the same compound?
**A.** Its value is 76%**.

**Q.** What about the “Mean difference in tumor growth rate … (%)” value (HT1080 xenografts [12]; Study 24b, 0.3 mg/kg QD, Day 15) of the same compound?
**A.** Its value is 28% ^.
